Assay results taken from US20050009924A1 (priority 2003, published 2005).

Columns and labels:
[1] = MTT relative viability, PhTERT-SEAP (hTERT-BJ1) cells; conditions: human
[2] = test system: transcriptional activity of hTERT; assay: SEAP reporter assay of hTERT expression, PhTERT-SEAP (hTERT-BJ1); assay type: cell-based, human
Method in brief: (§1)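 Cells seeded, grown 24 h at 37° C, refed, then exposed to varying drug amounts for another 24 h. Collected media heated 65° C for 10 min to kill heat-labile phosphatases, mixed with equal SEAP buffer (2 M diethanolamine, 1 mM MgCl2, 20 mM […]) plus 12 mM final p-nitrophenyl phosphate; rate of A405 increase measured.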

[3] = test system: transcriptional activity of hTERT; assay: SEAP reporter assay of hTERT expression, PhTERT-SEAP (H1299); assay type: cell-based, human
Method in brief: as §1

[4] = test system: hepatitis B virus transfected hepatoma cell lines, HepG 2.2.15 cells; assay: Cytotoxicity assay, 2.2.15 cells; assay type: cell-based, human; conditions: Homo sapiens, HepG2.2.15; 48 h of drug exposure
rat glioma C6 cells = assay: Cytotoxicity assay (XTT colorimetric), C6 cells; assay type: cell-based; conditions: Rattus norvegicus, C6; 48 h of drug exposure
[5] = MTT relative viability, PhTERT-SEAP (H1299) cells; conditions: human
human hepatoma G2 cells = assay: Cytotoxicity assay (XTT colorimetric), Hep G2; assay type: cell-based; conditions: Homo sapiens, HepG2; 48 h of drug exposure
[6] = hTERT-BJ1 cells, stable PhTERT-SEAP reporter clone
[7] = Homo sapiens, hTERT-BJ1, read-out: Relative SEAP activity (%)
[8] = Homo sapiens, NCI-H1299, hTERT-H1299, read-out: Relative SEAP activity (%)

O=C1c2ccccc2C(=O)c2c(NC(=O)[C@@H]3C[C@H]3c3ccccc3)ccc(NC(=O)[C@@H]3C[C@H]3c3ccccc3)c21 (relative stereo) [VI27, 1,4-Bis(trans-2-phenyl-1-cyclopropaneamido)-9,10-anthracenedione]
viability at 48 h, 1.8 µM [1, 6]: 92 ± 16.9%
viability at 48 h, 18 µM [1, 6]: 97 ± 18.2%
viability at 48 h, 189 µM [1, 6]: 104 ± 10.7%
SEAP/vibility ([2]; 1.8 μM, PhTERT-SEAP (hTERT-BJ1)): 0.89
SEAP/vibility ([2]; 18 μM, PhTERT-SEAP (hTERT-BJ1)): 0.99
SEAP/vibility ([2]; 189 μM, PhTERT-SEAP (hTERT-BJ1)): 0.98
activity at 1.8 µM ([2]; Homo sapiens, 1.8 μM, PhTERT-SEAP (hTERT-BJ1), read-out: Relative SEAP activity (%)): 92 ± 16.9%
activity at 18 µM ([2]; Homo sapiens, 18 μM, PhTERT-SEAP (hTERT-BJ1), read-out: Relative SEAP activity (%)): 97 ± 18.2%
activity at 189 µM ([2]; Homo sapiens, 189 μM, PhTERT-SEAP (hTERT-BJ1), read-out: Relative SEAP activity (%)): 102 ± 16.6%
SEAP/vibility ([3]; 1.8 μM, PhTERT-SEAP(hTERT-H1299)): 0.94
SEAP/vibility ([3]; 18 μM, PhTERT-SEAP(hTERT-H1299)): 0.93
SEAP/vibility ([3]; 189 μM, PhTERT-SEAP(hTERT-H1299)): 0.92
activity at 1.8 µM ([3]; Homo sapiens, NCI-H1299, 1.8 μM, PhTERT-SEAP(hTERT-H1299), read-out: Relative SEAP activity (%)): 95 ± 7.7%
activity at 18 µM ([3]; Homo sapiens, NCI-H1299, 18 μM, PhTERT-SEAP(hTERT-H1299), read-out: Relative SEAP activity (%)): 93 ± 3.2%
activity at 189 µM ([3]; Homo sapiens, NCI-H1299, 189 μM, PhTERT-SEAP(hTERT-H1299), read-out: Relative SEAP activity (%)): 87 ± 3.6%
IC50 [4]: 19.5 µM
IC50 (rat glioma C6 cells): > 20 µM
viability at 48 h, 1.8 µM [5]: 101 ± 2.4%
viability at 48 h, 18 µM [5]: 100 ± 4.7%
viability at 48 h, 189 µM [5]: 94 ± 3.5%
IC50 (human hepatoma G2 cells): > 20 µM
melting point: 272 to 274 °C

O=C1c2cccc(SCCC(O)O)c2C(=O)c2cccc(SCCC(O)O)c21 [IId, 1,5-Bis(dihydroxypropylthio)-anthraquinone]
melting point: 238 to 239 °C

CCNc1cccc2c1C(=O)c1cccc(NCC)c1C2=O [IVa, 1,5-Bis(ethylamino)anthraquinone]
viability at 48 h, 3.3 µM [1]: 100 ± 4.8%
viability at 48 h, 33 µM [1]: 97 ± 1%
viability at 48 h, 339 µM ([1]; hTERT-BJ1 cells): 99 ± 3.2%
activity at 3.3 µM ([2]; Homo sapiens, 3.3 μM, hTERT-BJ1, read-out: Relative SEAP activity (%)): 94 ± 17.4%
activity at 33 µM ([2]; Homo sapiens, 33 μM, hTERT-BJ1, read-out: Relative SEAP activity (%)): 96 ± 8.5%
activity at 339 µM ([2]; Homo sapiens, 339 μM, hTERT-BJ1, read-out: Relative SEAP activity (%)): 66 ± 11.8%
activity at 3.3 µM ([3]; Homo sapiens, NCI-H1299, 3.3 μM, hTERT-H1299, read-out: Relative SEAP activity (%)): 108 ± 6.3%
activity at 33 µM ([3]; Homo sapiens, NCI-H1299, 33 μM, hTERT-H1299, read-out: Relative SEAP activity (%)): 101 ± 6.8%
activity at 339 µM ([3]; Homo sapiens, NCI-H1299, 339 μM, hTERT-H1299, read-out: Relative SEAP activity (%)): 95 ± 11%
IC50 [4]: > 20 µM
IC50 (rat glioma C6 cells): > 20 µM
viability at 48 h, 3.3 µM [5]: 106 ± 7.4%
viability at 48 h, 33 µM [5]: 104 ± 3.7%
viability at 48 h, 339 µM [5]: 103 ± 6.4%
IC50 (human hepatoma G2 cells): > 20 µM
melting point: 193 to 195 °C

CC(C)Nc1cccc2c1C(=O)c1cccc(NC(C)C)c1C2=O [IVc, 1,5-Bis(isopropylamino)anthraquinone]
viability at 48 h, 3.1 µM ([1]; hTERT-BJ1 cells): 101 ± 4.5%
viability at 48 h, 31 µM ([1]; hTERT-BJ1 cells): 93 ± 6.5%
viability at 48 h, 310 µM ([1]; hTERT-BJ1 cells): 98 ± 12.9%
activity at 3.1 µM [2, 7]: 32 ± 18.3%
activity at 31 µM [2, 7]: 23 ± 20.5%
activity at 310 µM [2, 7]: -2%
activity at 3.1 µM [3, 8]: 94 ± 4.1%
activity at 31 µM [3, 8]: 93 ± 2%
activity at 310 µM [3, 8]: 66 ± 4.7%
IC50 [4]: 19 µM
IC50 (rat glioma C6 cells): > 20 µM
viability at 48 h, 3.1 µM [5]: 114 ± 7.6%
viability at 48 h, 31 µM [5]: 111 ± 4.7%
viability at 48 h, 310 µM [5]: 50 ± 7.5%
IC50 (human hepatoma G2 cells): 7.64 ± 2.38 µM
melting point: 170 to 172 °C

CCCNc1cccc2c1C(=O)c1cccc(NCCC)c1C2=O [IVf, 1,5-Bis(propylamino)anthraquinone]
viability at 48 h, 3.1 µM ([1]; hTERT-BJ1 cells): 97 ± 5.6%
viability at 48 h, 31 µM ([1]; hTERT-BJ1 cells): 93 ± 8.9%
viability at 48 h, 310 µM ([1]; hTERT-BJ1 cells): 42 ± 8.1%
activity at 3.1 µM [2, 7]: 18 ± 16.7%
activity at 31 µM [2, 7]: 19 ± 24.6%
activity at 310 µM [2, 7]: -7%
activity at 3.1 µM [3, 8]: 101 ± 15.3%
activity at 31 µM [3, 8]: 100 ± 5.6%
activity at 310 µM [3, 8]: 89 ± 8.3%
IC50 [4]: 1.94 µM
IC50 (rat glioma C6 cells): 16 ± 0.68 µM
viability at 48 h, 3.1 µM [5]: 99 ± 7.6%
viability at 48 h, 31 µM [5]: 98 ± 5.8%
viability at 48 h, 310 µM [5]: 46 ± 9.5%
IC50 (human hepatoma G2 cells): 1.74 ± 0.14 µM
melting point: 153 to 154 °C

CCCCNc1cccc2c1C(=O)c1cccc(NCCCC)c1C2=O [IVg, 1,5-Bis(butylamino)anthraquinone]
melting point: 152 to 153 °C

O=C1c2cccc(NC3CCCC3)c2C(=O)c2cccc(NC3CCCC3)c21 [IVi, 1,5-Bis(cyclopentylamino)anthraquinone]
melting point: 198 to 201 °C

NCCCCNc1cccc2c1C(=O)c1cccc(NCCCCN)c1C2=O [IVl, 1,5-Bis(aminobutylamino)-anthraquinone]
melting point: 208 to 210 °C
